Consider 36 compounds from patent US20060063784A1, “Method of using substituted pyrazolo [1,5-a] pyrimidines” (priority 2004, published 2006).

One test relates to 80S14 (p21-deficient) cells. As to the kind of experiment: Cytotoxicity assay using isogenic cell lines: IC50 in 80S14 (p21-deficient) cells, SRB. Particulars: 80S14 (p21-deficient) cells, 5 days, SRB; class symbols; read-out: IC50 for 80S14. It counts as cell-based, human. The method, boiled down: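 IC50 is the concentration halving proliferation relative to untreated controls, read from SRB absorbance (560 nm) after TCA fixation. Test agent dilutions (5 pM–50 μM or 170 pg/ml–10 μg/ml) were left on p21-deficient 80S14 cells (12,000/well, pre-incubated overnight) for 5 days at 37 °C.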
As to “3-(3,5-Dimethylphenyl)-7-{3-[2-(2-piperidin-1-ylethyl)-2H-tetrazol-5-yl]phenyl}pyrazolo[1,5-a]pyrimidine [Example 500]”, the half-maximal inhibitory concentration (IC50) lay in the range of 1 to 10 µM.

The test is the same for the next values; noted with them: 80S14 p21-deficient cells, 5 days incubation, SRB; read-out: IC50 for 80SI4.
As to `C[C@H](NC(=O)Nc1cccc(-c2ccnc3c(C(=O)c4cccs4)cnn23)c1)c1ccccc1` [Example 11, N-[(1S)-1-phenylethyl]-N′-{3-[3-(thien-2-ylcarbon1)pyrazolo[1,5-a]pyrimidin-7-yl]phenyl}urea], the concentration for half-maximal inhibition (IC50) was in the range of 1 to 10 µM. With `N[C@H](C(=O)Nc1cccc(-c2ccnc3c(C(=O)c4cccs4)cnn23)c1)C1CCCCC1` [Example 86], the 50% inhibitory concentration (IC50) lay in the range of 1 to 10 µM. As to `CC(C)[C@H](N)C(=O)Nc1cccc(-c2ccnc3c(C(=O)c4cccs4)cnn23)c1` [Example 83, N-1-{3-[3-(thien-2-ylcarbonyl)pyrazolo[1,5-a]pyrimidin-7-yl]phenyl}-L-valinamide], the IC50 lay within 1 to 10 µM.

For `CCN(CC)CCC(=O)Nc1cccc(-c2ccnc3c(C(=O)c4cccs4)cnn23)c1` [Example 65, N-3,N-3-diethyl-N-1-{3-[3-(thien-2-ylcarbonyl)pyrazolo[1,5-a]pyrimidin-7-yl]phenyl}-beta-alaninamide], the IC50 lay in the range of 10 to 50 µM.

The same test, now with this note: Homo sapiens, 80S14, 120 h, read-out: IC50 for 80S14 (uM).
For `CC(C)OC(=O)Nc1cccc(-c2ccnc3c(C(=O)c4ccco4)cnn23)c1` [Example 299, Isopropyl 3-[3-(2-furoyl)pyrazolo[1,5-a]pyrimidin-7-yl]phenylcarbamate], the IC50 is < 1 µM.

The test is the same for the next values; noted with them: Homo sapiens, 120 h; 80S14 (p21-deficient) cells, 5 days, SRB; class symbols; read-out: IC50 for 80S14.
Regarding `CCOc1cccc(-c2ccnc3c(C(=O)c4cccs4)cnn23)c1` [Example 263, [7-(3-Ethoxyphenyl)pyrazolo[1,5-a]pyrimidin-3-yl]-2-thienyl-methanone], the IC50 fell in the range of 1 to 10 µM. Turning to `CC(C)CC(=O)Nc1cccc(-c2ccnc3c(Br)cnn23)c1` [Example 330, N-[3-(3-Bromopyrazolo[1,5-a]pyrimidin-7-yl)phenyl]-3-methylbutanamide], the IC50 was 10 to 50 µM. `CCN(C(=O)C1CC1)c1cccc(-c2ccnc3c(C(=O)c4ccco4)cnn23)c1` [Example 257, N-Ethyl-N-[3-[3-(2-furanylcarbonyl)pyrazolo[1,5-a]pyrimidin-7-yl]phenyl}-cyclopropanecarboxamide]: the IC50 lay within 10 to 50 µM. With `CC(C)COC(=O)Nc1cccc(-c2ccnc3c(-c4cccs4)cnn23)c1` [Example 407, Isobutyl 3-(3-thien-2-ylpyrazolo[1,5-a]pyrimidin-7-yl)phenylcarbamate], the concentration for half-maximal inhibition (IC50) fell in the range of 1 to 10 µM. With `O=C(c1ccccn1)c1cnn2c(-c3cccc(NC(=O)C4CC4)c3)ccnc12` [Example 337, N-{3-[3-(Pyridin-2-ylcarbonyl)pyrazolo[1,5-a]pyrimidin-7-yl]phenyl}cyclopropanecarboxamide], the 50% inhibitory concentration (IC50) lay in the range of 10 to 50 µM. With `CN(C(=O)C1CCC1)c1cccc(-c2ccnc3c(C#N)cnn23)c1` [Example 234, N-[3-(3-Cyanopyrazolo[1,5-a]-pyrimidin-7-yl)phenyl]-N-methyl-cyclobutanecarboxamide], the half-inhibitory concentration (IC50) was in the range of 1 to 10 µM.

Consider `Cc1nn2c(-c3cccc(NC(=O)CC(C)C)c3)ccnc2c1C(=O)c1cccs1` [Example 307, 3-Methyl-N-{3-[2-methyl-3-(2-thienylcarbonyl)pyrazolo[1,5-a]pyrimidin-7-yl]phenyl}butanamide], for which the half-maximal inhibitory concentration (IC50) lay in the range of 10 to 50 µM. `CC(C)NC(=O)c1cccc(-c2ccnc3c(C(=O)c4cccs4)cnn23)c1` [Example 322, N-Isopropyl-3-[3-(2-thienylcarbonyl)pyrazolo[1,5-a]pyrimidin-7-yl]benzamide]: the IC50 is < 1 µM. Consider `CCNc1ccc(-c2ccnc3c(C(=O)c4cccs4)cnn23)cc1` [Example 271, [7-[4-(Ethylamino)phenyl]pyrazolo[1,5-a]pyrimidin-3-yl]-2-thienyl-methanone], for which the IC50 lay in the range of 10 to 50 µM. Still for that read-out and setting: in the case of `O=C(Nc1cccc(-c2ccnc3c(C(=O)c4cccs4)cnn23)c1)c1cnc[nH]1` [Example 415, N-{3-[3-(Thien-2-ylcarbonyl)pyrazolo[1,5-a]pyrimidin-7-yl]phenyl}-1H-imidazole-5-carboxamide] it was < 1 µM; in that of `C/C(=C\c1ccc(C(C)(C)C)cc1)CNc1cccc(-c2ccnc3c(C(=O)c4cccs4)cnn23)c1` [Example 413, [7-(3-{[(2E)-3-(4-tert-Butylphenyl)-2-methylprop-2-enyl]amino}phenyl)pyrazolo[1,5-a]pyrimidin-3-yl](thien-2-yl)methanone], 10 to 50 µM; in that of `CCCC(C)CNc1cccc(-c2ccnc3c(C(=O)c4cccs4)cnn23)c1` (stereo not drawn) [Example 418, (7-{3-[(2-Methylpentyl)amino]phenyl}pyrazolo[1,5-a]pyrimidin-3-yl)(thien-2-yl)methanone], 1 to 10 µM.

Staying with this test, now noted: Homo sapiens, 120 h; 80S14 p21-deficient cells, 5 days incubation, SRB; read-out: IC50 for 80SI4.
In the case of `C#CCC(C)OC(=O)Nc1cccc(-c2ccnc3c(C(=O)c4cccs4)cnn23)c1` (stereo not drawn) [Example 183, 1-methylbut-3-ynyl 3-[3-(thien-2-ylcarbonyl)pyrazolo[1,5-a]pyrimidin-7-yl]phenylcarbamate], the IC50 is < 1 µM.

For the compound `COc1cccc(CC(=O)Nc2cccc(-c3ccnc4c(C(=O)c5cccs5)cnn34)c2)c1` [Example 107, 2-(3-methoxyphenyl)-N-{3-[3-(thien-2-ylcarbonyl)pyrazolo[1,5-a]pyrimidin-7-yl]phenyl}acetamide], the IC50 was < 1 µM. `O=C(Nc1cccc(-c2ccnc3c(C(=O)c4cccs4)cnn23)c1)C(Cl)=C(Cl)Cl` [Example 144, 2,3,3-trichloro-N-{3-[3-(thien-2-ylcarbonyl)pyrazolo[1,5-a]pyrimidin-7-yl]phenyl}acrylamide]: the concentration for half-maximal inhibition (IC50) is < 1 µM. Take `COCC(=O)Nc1cccc(-c2ccnc3c(C(=O)c4cccs4)cnn23)c1` [Example 61, 2-methoxy-N-{3-[3-(thien-2-ylcarbonyl)pyrazolo[1,5-a]pyrimidin-7-yl]phenyl]acetamide]: the half-maximal inhibitory concentration (IC50) lay in the range of 1 to 10 µM. `O=C(Nc1cccc(-c2ccnc3c(C(=O)c4cccs4)cnn23)c1)c1cccc(F)c1` [Example 98, 3-fluoro-N-{3-[3-(thien-2-ylcarbonyl)pyrazolo[1,5-a]pyrimidin-7-yl]phenyl}benzamide]: the IC50 is < 1 µM. Take `O=C(CNC(=O)OCCCCCl)Nc1cccc(-c2ccnc3c(C(=O)c4cccs4)cnn23)c1` [Example 119, 4-chlorobutyl 2-oxo-2-({3-[3-(thien-2-ylcarbonyl)pyrazolo[1,5-a]pyrimidin-7-yl]phenyl}amino)ethylcarbamate]: the IC50 was in the range of 10 to 50 µM. For the compound `O=C(CCCl)Nc1cccc(-c2ccnc3c(C(=O)c4cccs4)cnn23)c1` [Example 139, 3-chloro-N-{3-[3-(thien-2-ylcarbonyl)pyrazolo[1,5-a]pyrimidin-7-yl]phenyl}propanamide], the IC50 is < 1 µM. Still for that read-out and setting: in the case of `O=C(c1cccs1)c1cnn2c(-c3cccc(NS(=O)(=O)c4cccs4)c3)ccnc12` [Example 38, N-{3-[3-(thien-2-ylcarbonyl)pyrazolo[1,5-a]pyrimidin-7-yl]phenyl}thiophene-2-sulfonamide] it was 1 to 10 µM; in that of `C=CCCC(=O)Nc1cccc(-c2ccnc3c(C(=O)c4cccs4)cnn23)c1` [Example 57, N-{3-[3-(thien-2-ylcarbonyl)pyrazolo[1,5-a]pyrimidin-7-yl]phenyl}pent-4-enamide], < 1 µM; in that of `O=C(c1cccs1)c1cnn2c(-c3cccc(NS(=O)(=O)c4ccc(Br)cc4)c3)ccnc12` [Example 35, 4-bromo-N-{3-[3-(thien-2-ylcarbonyl)pyrazolo[1,5-a]pyrimidin-7-yl]phenyl}benzenesulfonamide], 1 to 10 µM.

As to `Cc1cnc2c(C(=O)c3cccs3)cnn2c1-c1cccc(NC(=O)OCCCl)c1` [Example 212, 2-chloroethyl 3-[6-methyl-3-(thien-2-ylcarbonyl)pyrazolo[1,5-a]pyrimidin-7-yl]phenylcarbamate], the 50% inhibitory concentration (IC50) fell in the range of 10 to 50 µM. Turning to `O=C(CC1CCCC1)Nc1cccc(-c2ccnc3c(C(=O)c4cccs4)cnn23)c1` [Example 73, 2-cyclopentyl-N-{3-[3-(thien-2-ylcarbonyl)pyrazolo[1,5-a]pyrimidin-7-yl]phenyl}acetamide], the IC50 is < 1 µM. Regarding `Cc1ccccc1CC(=O)Nc1cccc(-c2ccnc3c(C(=O)c4cccs4)cnn23)c1` [Example 68, 2-(2-methylphenyl)-N-{3-[3-(thien-2-ylcarbonyl)pyrazolo[1,5-a]pyrimidin-7-yl]phenyl}acetamide], the IC50 was < 1 µM.

In the case of `COc1ccc(S(=O)(=O)Nc2cccc(-c3ccnc4c(C(=O)c5cccs5)cnn34)c2)cc1` [Example 36, 4-methoxy-N-{3-[3-(thien-2-ylcarbonyl)pyrazolo[1,5-a]pyrimidin-7-yl]phenyl}benzenesulfonamide], the IC50 was 1 to 10 µM. For the compound `CC(C)COC(=O)NCC(=O)Nc1cccc(-c2ccnc3c(C(=O)c4cccs4)cnn23)c1` [Example 117, isobutyl 2-oxo-2-({3-[3-(thien-2-ylcarbonyl)pyrazolo[1,5-a]pyrimidin-7-yl]phenyl}amino)ethylcarbamate], the concentration for half-maximal inhibition (IC50) is 1 to 10 µM. In the case of `CSCCC(=O)Nc1cccc(-c2ccnc3c(C(=O)c4cccs4)cnn23)c1` [Example 50, 3-(methylthio)-N-{3-[3-(thien-2-ylcarbonyl)pyrazolo[1,5-a]pyrimidin-7-yl]phenyl}propanamide], the IC50 is < 1 µM. Consider `O=C(CNC(=O)OCCCl)Nc1cccc(-c2ccnc3c(C(=O)c4cccs4)cnn23)c1` [Example 120, 2-chloroethyl-2-oxo-2-({3-[3-(thien-2-ylcarbonyl)pyrazolo[1,5-a]pyrimidin-7-yl]phenyl}amino)ethylcarbamate], for which the IC50 lay within 1 to 10 µM.

For `CCCCNC(=O)Nc1cccc(-c2c(C)cnc3c(C(=O)c4cccs4)cnn23)c1` [Example 221, N-butyl-N′-{3-[6-methyl-3-(thien-2-ylcarbonyl)pyrazolo[1,5-a]pyrimidin-7-yl]phenyl}urea], the half-inhibitory concentration (IC50) was 10 to 50 µM.
